Assay [1] concerns platelet aggregation induced by the TXA2 agonist, U 46619. As to the kind of experiment: Platelet aggregation in man (platelet-rich plasma, induced by U 46619). It counts as cell-based. The following applies: human PRP, U 46619 0.3 μM, read-out: IC50, inhibition of platelet aggregation induced by U 46619. How it is done: Platelet aggregation in man
Venous blood is obtained from human volunteers who have not taken any aspirin for at least 14 days prior to the experiment. The blood is taken onto sodium citrate (0.109 M) (1 vol. of citrate by 9 vol. of blood). The platelet-rich plasma (PRP) is obtained after centrifugation (20° C.) at 200×g for 10 minutes. The number of platelets is, on average, 250,000 PL/mm^3. The PRP is stored at room temperature until the time of the test and is used within 2 hours of the blood being taken. The antagonists are tested according to the procedure described in Example 19, using U 46619 at a concentration of 0.3 μM.

The subject of assay [2] is Rabbit saphene vein. Nature of the assay: Non-endothelium-dependent relaxations in rabbit saphene vein. The following applies: for IC50: Oryctolagus cuniculus, rabbit saphene vein, contraction with KCl (60 mM), read-out: 50% effective relaxant concentration (IC50). How it is done:
(§1) New Zealand rabbits (2.5 kg) are exsanguinated under anesthesia (pentobarbital, 30 mg/kg) and the saphene veins are rapidly removed and cut into 3-mm rings. These rings are mounted between two hooks in tanks thermostatically adjusted to 37° C., containing physiological saline (composition in mM: 118 NaCl; 25 NaHCO3; 10 glucose; 4.7 KCl; 1.25 CaCl2; 1.19 MgSO4; 1.14 KHPO4).
The physiological saline is bubbled with a mixture of 95% O2 /5% CO2. The lower hook constitutes the fixed point whereas the upper hook is connected to an isometric force sensor. The tissues are placed under a base tension of 1 gram. The pharmacological substances studied are prepared immediately before use. The drugs are dissolved in water or in dimethyl sulfoxide.
This EC50 is calculated routinely in the following way: the tension values are first converted into percentages relative to the maximum effect and these percentages are then plotted on a graph with the percentages on the Y-axis and the log (concentration) values on the X-axis. A linear regression is then carried out on the points between 10% and 90% (which corresponds to the linear part of the sigmoidal curve). The concentration corresponding to the half-maximal effect (50%) can readily be calculated using the parameters of the straight line. After washing and returning to the base line, the organ is placed in contact with the antagonist (8 different concentrations for each organ) for 20 minutes. A second effect/concentration curve is thus produced in the presence of the antagonist and the "treated" EC50 can then be calculated. This thus provides all the elements which allow the pA2 (competitive antagonism) or pD2 (non-competitive angatonism) to be calculated.
Determination of the Non-Endothelium-Dependent Relaxations in Rabbit Saphene Vein
Rabbit saphene veins are prepared and mounted as described in the above example. After stabilization, a contraction with KCl (60 mM) is induced. […] It is calculated as described in the above example.

The target of assay [3] is vascular TP-receptor. As to the kind of experiment: Determination of the pA2 values of the antagonists towards TXA2 on rabbit saphene vein. The arrangement: species or system rabbit (New Zealand). The settings on record: rabbit saphene vein rings, 37° C., U 46619 10^-9 M to 10^-5 M, antagonist 20 minutes. The method, then:
Determination of the pA2 Values of the Antagonists Towards TXA2 on Rabbit Saphene Vein
as §1
The physiological saline is bubbled with a mixture of 95% O2 /5% CO2. The lower hook constitutes the fixed point whereas the upper hook is connected to an isometric force sensor. The tissues are placed under a base tension of 1 gram. […]
After mounting, the preparations are left to stand for 90 minutes, with rinsing carried out every 30 minutes. After readjustment of the base tension, a contraction by a single dose of the TXA2 agonist, U 46619 at 10^-5 M, is induced in order to regularize the following contractions. […]
This EC50 is calculated routinely in the following way: the tension values are first converted into percentages relative to the maximum effect and these percentages are then plotted on a graph with the percentages on the Y-axis and the log (concentration) values on the X-axis. […] The concentration corresponding to the half-maximal effect (50%) can readily be calculated using the parameters of the straight line. […]

`O=C(O)CCc1c(CO[N+](=O)[O-])ccc2c1CCC(NS(=O)(=O)c1ccc(Cl)cc1)C2` (stereo not shown) [Example 4, 3-[6-(4-Chlorophenylsulfonyl)amino-2-nitroxymethyl-5,6,7,8-tetrahydronaphth-1-yl]propionic acid]: in assay [1], the IC50 worked out at 0.14 µM. As a reminder, the pA2 is the negative logarithm of the molar antagonist concentration that doubles the agonist concentration needed for the same response. High values mean a more potent antagonist, low ones a weaker antagonist. As for `O=C(O)CCc1c(CCO[N+](=O)[O-])ccc2c1CCC(NS(=O)(=O)c1ccc(Cl)cc1)C2` (stereo not shown) [Example 2, 3-{6-[(4-Chlorophenylsulfonyl)amino]-2-(2-nitroxyethyl)-5,6,7,8-tetrahydronaphth-1-yl}propionic acid], the IC50 in assay [2] was found to be 10 µM; in assay [1], 0.14 µM. The pA2 in assay [3] is on record as 9.5.

Turning to `O=c1onc2cnc3ccccc3n12` [ODQ, reference compound], the “inhibition of relaxations by guanylate cyclase inhibitor (in words)” value in assay [2] (relaxations induced by the substances of the invention, ODQ) is on record as “capable of inhibiting relaxations”.

On to `O=C(O)CCc1cc(CCO[N+](=O)[O-])cc2c1CCC(NS(=O)(=O)c1ccc(Cl)cc1)C2` (stereo not shown) [Example 6, 3-{6-[(4-Chlorophenylsulfonyl)amino]-3-(2-nitroxyethyl)-5,6,7,8-tetrahydronaphth-1-yl}propionic acid], for which the IC50 in assay [2] came out at 7.7 µM. The molecule also had a pA2 in assay [3] of 9.8.

(Values after patent US6013667A, “Benzenesulfonylamine compounds, process for preparing them and pharmaceutical compositions” (Adir Et Compagnie, priority 1997, dated 2000).)
